Molecules are shown by their SMILES.

By IC50 is commonly meant the midpoint of a concentration-inhibition curve. The Cmax is the maximum level reached in the sampled fluid or tissue. For orientation: AUC(0-t) means the area under the concentration-time curve up to a stated or last time point.

The target in series [1] is Cyclin-dependent kinase 2/cyclin A (Homo sapiens, UniProt P24941). Kind of series: Inhibition of CDK2/CycA (unknown origin). In kind it is protein-complex assay.
Series [2] has as its target Epidermal growth factor receptor (Homo sapiens, UniProt P00533). Kind of series: Inhibition of EGFR (unknown origin).
Series [3] deals with Bone morphogenetic protein receptor type-1A (Homo sapiens, UniProt P36894). Description: Inhibition of BMPR1A (unknown origin).
A short description of series [4]: Cmax in Sprague-Dawley rat at 3 mg/kg, po by LC/MS/MS method. Type of series: ADME, organism-based. Also on record: dose 3 mg/kg, route oral. To be noted: in vivo.
The target of series [5] is Mitogen-activated protein kinase kinase kinase 9 (Homo sapiens, UniProt P80192). Description: Inhibition of MLK1 (unknown origin).
Mitogen-activated protein kinase kinase kinase 9, sequence (P80192 whole entry): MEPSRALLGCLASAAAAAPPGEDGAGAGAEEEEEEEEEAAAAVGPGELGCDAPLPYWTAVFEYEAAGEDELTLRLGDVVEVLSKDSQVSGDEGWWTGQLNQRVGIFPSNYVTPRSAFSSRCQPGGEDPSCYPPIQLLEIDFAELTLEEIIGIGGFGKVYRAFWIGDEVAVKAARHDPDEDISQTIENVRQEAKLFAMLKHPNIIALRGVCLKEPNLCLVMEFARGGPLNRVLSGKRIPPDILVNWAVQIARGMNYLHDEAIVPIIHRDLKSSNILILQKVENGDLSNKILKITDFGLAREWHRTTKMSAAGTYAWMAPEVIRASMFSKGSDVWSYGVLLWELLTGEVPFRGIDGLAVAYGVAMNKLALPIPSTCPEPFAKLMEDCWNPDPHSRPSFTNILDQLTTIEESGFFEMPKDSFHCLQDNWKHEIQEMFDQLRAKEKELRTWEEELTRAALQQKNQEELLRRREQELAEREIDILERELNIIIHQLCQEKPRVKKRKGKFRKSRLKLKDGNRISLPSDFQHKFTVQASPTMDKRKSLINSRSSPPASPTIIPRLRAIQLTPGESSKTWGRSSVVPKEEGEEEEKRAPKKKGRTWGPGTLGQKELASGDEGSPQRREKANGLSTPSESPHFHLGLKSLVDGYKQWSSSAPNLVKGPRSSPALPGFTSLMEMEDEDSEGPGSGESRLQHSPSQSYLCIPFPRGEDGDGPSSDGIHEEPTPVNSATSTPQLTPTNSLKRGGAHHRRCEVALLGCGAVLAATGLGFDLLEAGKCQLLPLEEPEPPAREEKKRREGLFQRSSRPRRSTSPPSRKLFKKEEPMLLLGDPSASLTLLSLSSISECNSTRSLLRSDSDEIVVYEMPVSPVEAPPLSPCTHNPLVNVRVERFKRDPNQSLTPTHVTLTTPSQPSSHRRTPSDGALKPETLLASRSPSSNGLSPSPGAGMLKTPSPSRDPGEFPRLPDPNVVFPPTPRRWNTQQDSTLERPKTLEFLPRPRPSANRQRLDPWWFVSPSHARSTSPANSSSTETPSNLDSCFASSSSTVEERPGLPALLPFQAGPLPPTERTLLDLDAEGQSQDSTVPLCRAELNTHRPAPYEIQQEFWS
The nature of series [6]: Intrinsic clearance in beagle dog liver microsomes at 0.2 uM in presence of NADPH generating system by LC/MS/MS method. The conditions noted are these: read-out: CLH. In kind it is ADME, Canis lupus familiaris. Background: Liver microsomes are vesicles of endoplasmic reticulum, rich in cytochrome P450 enzymes.
Series [7] is described as follows: Cmax in beagle dog at 3 mg/kg, po by LC/MS/MS method. In kind it is ADME, organism-based, Canis lupus familiaris. The arrangement: dose 3 mg/kg, route oral. The conditions noted are these: in vivo.
For series [8], the target named is Mitogen-activated protein kinase 10 (Homo sapiens, UniProt P53779). Kind of series: Inhibition of JNK3 (unknown origin).
The target in series [9] is Tyrosine-protein kinase JAK2 (Homo sapiens, UniProt O60674). Description: Inhibition of human JAK2 kinase domain using biotin-Lyn-substrate-2 as substrate incubated for 1 hr by ELISA method. (ELISA stands for enzyme-linked immunosorbent assay.)
Series [10] can be described thus: Inhibition of JAK1/JAK3 in Lewis rat splenocytes assessed as reduction in IL2-stimulated T-cell proliferation incubated for 3 days by alamar blue dye based fluorescence assay. To be noted: 72 h. For orientation: Resazurin is reduced to fluorescent resorufin, in cell work by metabolically active cells.
Series [11] addresses Glycogen synthase kinase-3 beta (Homo sapiens, UniProt P49841). Kind of series: Inhibition of GSK3beta (unknown origin).
Series [12] can be described thus: Volume of distribution at steady state in cynomolgus monkey at 1 mg/kg, iv by LC/MS/MS method. Type of series: ADME, organism-based, Macaca fascicularis. To be noted: in vivo, read-out: Vdss.
The target in series [13] is Tyrosine-protein kinase ITK/TSK (Homo sapiens, UniProt Q08881). Description: Inhibition of ITK (unknown origin).
A short description of series [14]: AUC (0 to 24 hrs) in beagle dog at 1 mg/kg, iv by LC/MS/MS method. In kind it is ADME, organism-based, Canis lupus familiaris. The arrangement: dose 1 mg/kg, time < 24 hr, route intravenous. To be noted: in vivo.
Series [15] in a line: AUC (0 to 24 hrs) in Sprague-Dawley rat at 1 mg/kg, iv by LC/MS/MS method. Type of series: ADME, organism-based. Also on record: dose 1 mg/kg, time < 24 hr, route intravenous. To be noted: in vivo.
In series [16] the target is Tyrosine-protein kinase CSK (Homo sapiens, UniProt P41240). Description: Inhibition of CSK (unknown origin).
Tyrosine-protein kinase CSK, sequence (P41240 whole entry): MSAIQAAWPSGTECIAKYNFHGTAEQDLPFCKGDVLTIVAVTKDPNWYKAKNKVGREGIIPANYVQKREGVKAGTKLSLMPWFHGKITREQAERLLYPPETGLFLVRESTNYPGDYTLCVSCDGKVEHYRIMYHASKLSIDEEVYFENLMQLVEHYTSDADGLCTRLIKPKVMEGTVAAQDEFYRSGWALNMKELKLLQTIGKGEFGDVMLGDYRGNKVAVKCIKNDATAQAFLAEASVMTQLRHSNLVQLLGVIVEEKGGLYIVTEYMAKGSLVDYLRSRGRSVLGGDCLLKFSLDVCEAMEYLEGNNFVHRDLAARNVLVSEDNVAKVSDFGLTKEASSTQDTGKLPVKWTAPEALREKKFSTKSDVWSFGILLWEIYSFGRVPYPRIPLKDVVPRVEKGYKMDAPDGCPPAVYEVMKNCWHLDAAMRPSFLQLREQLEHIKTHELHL
A further series concerns the target Angiopoietin-1 receptor (Homo sapiens, UniProt Q02763). Description: Inhibition of TIE2 (unknown origin).
For series [17], the target named is Mitogen-activated protein kinase kinase kinase 1 (Homo sapiens, UniProt Q13233). Description: Inhibition of MEKK1 (unknown origin).
Mitogen-activated protein kinase kinase kinase 1, sequence (Q13233 whole entry): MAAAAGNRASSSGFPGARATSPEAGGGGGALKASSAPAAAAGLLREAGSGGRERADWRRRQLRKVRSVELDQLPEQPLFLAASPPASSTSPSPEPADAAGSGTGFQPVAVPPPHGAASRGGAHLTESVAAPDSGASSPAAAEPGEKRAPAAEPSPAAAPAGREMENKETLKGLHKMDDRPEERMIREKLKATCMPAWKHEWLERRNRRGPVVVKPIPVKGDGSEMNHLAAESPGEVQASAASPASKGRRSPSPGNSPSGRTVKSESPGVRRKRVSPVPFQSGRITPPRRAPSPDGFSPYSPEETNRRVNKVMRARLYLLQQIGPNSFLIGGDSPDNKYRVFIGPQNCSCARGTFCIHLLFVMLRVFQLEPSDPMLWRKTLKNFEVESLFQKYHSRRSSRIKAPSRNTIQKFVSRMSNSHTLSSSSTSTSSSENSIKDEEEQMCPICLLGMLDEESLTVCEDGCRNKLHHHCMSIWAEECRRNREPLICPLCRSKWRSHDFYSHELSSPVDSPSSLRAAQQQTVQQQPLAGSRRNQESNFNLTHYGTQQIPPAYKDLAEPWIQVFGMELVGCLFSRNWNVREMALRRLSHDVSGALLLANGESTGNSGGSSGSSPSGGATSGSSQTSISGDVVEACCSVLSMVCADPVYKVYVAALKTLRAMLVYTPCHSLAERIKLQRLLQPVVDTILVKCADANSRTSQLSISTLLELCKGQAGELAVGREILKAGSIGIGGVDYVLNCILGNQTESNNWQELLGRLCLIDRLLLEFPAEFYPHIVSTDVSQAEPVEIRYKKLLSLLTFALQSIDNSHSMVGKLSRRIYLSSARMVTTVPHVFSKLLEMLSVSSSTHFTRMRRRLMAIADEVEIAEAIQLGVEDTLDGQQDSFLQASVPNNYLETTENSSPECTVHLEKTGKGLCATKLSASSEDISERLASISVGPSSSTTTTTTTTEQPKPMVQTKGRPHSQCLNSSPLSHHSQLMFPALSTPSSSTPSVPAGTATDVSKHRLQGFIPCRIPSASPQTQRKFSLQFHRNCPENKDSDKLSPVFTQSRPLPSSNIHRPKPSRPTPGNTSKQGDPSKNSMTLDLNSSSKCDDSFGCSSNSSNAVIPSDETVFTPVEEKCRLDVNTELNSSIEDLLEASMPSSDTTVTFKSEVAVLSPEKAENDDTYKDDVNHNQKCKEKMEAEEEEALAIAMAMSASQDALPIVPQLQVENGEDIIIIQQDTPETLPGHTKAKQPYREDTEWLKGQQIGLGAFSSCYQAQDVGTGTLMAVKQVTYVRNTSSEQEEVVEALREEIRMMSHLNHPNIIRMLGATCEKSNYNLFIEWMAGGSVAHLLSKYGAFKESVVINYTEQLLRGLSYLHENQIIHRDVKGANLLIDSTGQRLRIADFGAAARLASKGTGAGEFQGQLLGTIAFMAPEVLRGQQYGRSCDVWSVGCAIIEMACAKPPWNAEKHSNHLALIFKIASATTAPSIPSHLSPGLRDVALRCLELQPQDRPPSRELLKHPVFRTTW
Series [18] deals with RAF proto-oncogene serine/threonine-protein kinase (Homo sapiens, UniProt P04049). Description: Inhibition of RAF1 (unknown origin).
RAF proto-oncogene serine/threonine-protein kinase, sequence (P04049 whole entry): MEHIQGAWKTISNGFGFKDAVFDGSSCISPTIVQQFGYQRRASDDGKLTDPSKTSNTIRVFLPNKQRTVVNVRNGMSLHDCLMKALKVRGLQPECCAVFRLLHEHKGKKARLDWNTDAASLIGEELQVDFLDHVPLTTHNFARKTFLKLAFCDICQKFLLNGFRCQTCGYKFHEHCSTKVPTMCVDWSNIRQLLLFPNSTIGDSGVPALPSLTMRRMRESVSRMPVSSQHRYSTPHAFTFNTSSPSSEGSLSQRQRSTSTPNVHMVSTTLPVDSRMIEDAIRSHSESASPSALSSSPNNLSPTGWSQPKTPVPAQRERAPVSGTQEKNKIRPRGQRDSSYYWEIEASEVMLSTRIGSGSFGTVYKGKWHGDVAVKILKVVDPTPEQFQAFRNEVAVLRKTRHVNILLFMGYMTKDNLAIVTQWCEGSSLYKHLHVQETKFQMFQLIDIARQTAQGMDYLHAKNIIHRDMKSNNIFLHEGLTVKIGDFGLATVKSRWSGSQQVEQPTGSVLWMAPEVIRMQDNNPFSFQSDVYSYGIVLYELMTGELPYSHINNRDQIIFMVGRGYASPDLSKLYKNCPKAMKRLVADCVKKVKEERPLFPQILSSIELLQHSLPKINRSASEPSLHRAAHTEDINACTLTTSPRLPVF
Series [19] is described as follows: AUC (0 to 24 hrs) in cynomolgus monkey at 1 mg/kg, iv by LC/MS/MS method. To be noted: in vivo. In kind it is ADME, organism-based, Macaca fascicularis. The arrangement: time < 24 hr, dose 1 mg/kg, route intravenous.
For a further series, the target named is Aurora kinase C (Homo sapiens, UniProt Q9UQB9). Description: Inhibition of AurC (unknown origin).

Angiopoietin-1 receptor, sequence (Q02763 whole entry): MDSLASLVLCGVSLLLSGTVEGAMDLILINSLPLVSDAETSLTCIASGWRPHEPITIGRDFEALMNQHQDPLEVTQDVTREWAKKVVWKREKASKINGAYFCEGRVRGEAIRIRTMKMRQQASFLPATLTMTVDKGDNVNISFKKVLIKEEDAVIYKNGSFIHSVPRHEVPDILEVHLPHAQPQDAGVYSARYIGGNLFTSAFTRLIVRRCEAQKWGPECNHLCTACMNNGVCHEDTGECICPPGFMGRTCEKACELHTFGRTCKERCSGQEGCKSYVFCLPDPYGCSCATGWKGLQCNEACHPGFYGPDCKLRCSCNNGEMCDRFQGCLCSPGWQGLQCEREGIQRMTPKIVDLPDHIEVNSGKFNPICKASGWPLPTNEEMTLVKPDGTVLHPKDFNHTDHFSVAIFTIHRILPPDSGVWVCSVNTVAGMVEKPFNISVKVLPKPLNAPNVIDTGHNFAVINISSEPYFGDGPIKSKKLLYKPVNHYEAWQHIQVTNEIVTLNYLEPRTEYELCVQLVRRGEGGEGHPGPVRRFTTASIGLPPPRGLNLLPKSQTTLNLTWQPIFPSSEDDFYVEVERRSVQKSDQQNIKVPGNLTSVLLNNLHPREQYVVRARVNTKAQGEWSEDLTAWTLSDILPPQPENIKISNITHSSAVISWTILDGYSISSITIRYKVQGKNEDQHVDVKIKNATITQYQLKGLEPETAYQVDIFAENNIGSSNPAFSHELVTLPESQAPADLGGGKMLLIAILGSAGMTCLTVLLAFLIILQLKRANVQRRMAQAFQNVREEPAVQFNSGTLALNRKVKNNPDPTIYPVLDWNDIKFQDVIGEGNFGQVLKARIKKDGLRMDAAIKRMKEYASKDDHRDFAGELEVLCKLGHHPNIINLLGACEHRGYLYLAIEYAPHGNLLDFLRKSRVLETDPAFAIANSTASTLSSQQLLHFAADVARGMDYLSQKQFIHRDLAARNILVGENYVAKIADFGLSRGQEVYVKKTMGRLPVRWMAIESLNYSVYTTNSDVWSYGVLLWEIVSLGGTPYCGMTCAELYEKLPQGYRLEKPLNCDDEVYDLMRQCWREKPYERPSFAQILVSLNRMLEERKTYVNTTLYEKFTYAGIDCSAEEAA

Consider `N#Cc1ccc(N2CC[C@@H](Nc3c(C(N)=O)cnc4[nH]ccc34)[C@@H](F)C2)nc1`, for which the IC50 is 590 nM in series [1]; greater than 1000 nM in series [2]; greater than 1000 nM in series [3]; 51 nM in series [5]; 560 nM in [8]; 3.2 nM in series [9]. Further, the IC50 is 11 nM in series [10]; 980 nM in [11]; greater than 1000 nM in series [13]; greater than 1000 nM in series [16]; greater than 1000 nM against Angiopoietin-1 receptor; greater than 1000 nM in series [17]. Besides, the IC50 (in series [18]; against Aurora kinase C) was greater than 1000 nM each time. Besides, the Cmax in [4] amounted to 633 ng/mL; in series [7], 666 ng/mL. In addition, in series [6], the CLint scaled at 0.2 µM was 18.8 mL/min/kg. Moreover, the Vd in series [12] came out at 1.5 L/kg. Moreover, the AUC(0-t) at 24 h in series [14] is 5650 ng·h/mL; in series [15] it was 3200 ng·h/mL; in series [19], 4490 ng·h/mL.

The record behind these values is ChEMBL document CHEMBL3593212, “Synthesis and evaluation of novel 1H-pyrrolo[2,3-b]pyridine-5-carboxamide derivatives as potent and orally efficacious immunomodulators targeting JAK3” (Bioorg Med Chem, 2015).
